Results from patent US20050267133A1, “Pyrazolopyrimidines as kinase inhibitors” (priority 2002, published 2005).

Experiments:
GSK-3β = GSK-3β (Homo sapiens, UniProt P49841); test: GSK3 scintillation proximity assay (SPA) kinase assay; format: biochemical; details: 20 nM kinase, 2.5 uM ATP, biotinylated glycogen synthase peptide, 40 minutes at room temperature; -log IC50 in Molar; read-out: GSK-3 pIC50 (converted)
Excerpt: The phosphorylated biotinylated peptide is then captured onto streptavidin coated scintillation proximity assay (SPA) beads from Amersham Technology, where the signal from the ^33P is amplified via the scintillant contained in the beads.
GSK-3β is commercially available or may be cloned and expressed in E. coli using standard techniques to produce soluble, active protein. The production of active protein involves purification in two steps using Metal Chelate and Ion Exchange Chromatography. Protein eluting from Ion Exchange provides >90% pure product that may then be concentrated for use in high throughput screening.
The kinase was assayed at a concentration of 20 nM final in 100 mM HEPES, pH 7.2 containing 10 mM magnesium chloride, 0.1 mg/mL bovine serum albumin, 1 mM dithiothreitol, 0.3 mg/mL heparin, 2.8 uM peptide substrate, 2.5 uM ATP, and 0.2 uCi/well [[…]-^33P]-ATP. After 40 minutes incubation at room temperature, the reaction was stopped by addition of 100 mM EDTA and […] in 100 mM HEPES, pH7.2 followed by an additional solution of diluted Streptavidin coated SPA beads in PBS, pH 7.2 to give a final concentration of 0.25 mg of beads per assay well in a 96-well microtiter plate.
10 mM stock solutions of the compounds of the invention in 100% DMSO are generated as a first step in the screening process. The second step involves the creation of dose response plates where these compounds are diluted 10-fold in 100% DMSO to 1 mM concentrations and subsequently serially diluted 3-fold in 100% DMSO across the plate by automated liquid handling such that the final top concentration of inhibitor is 0.033 mM in the 30 uL kinase assay. The third step involves the creation of the assay plates. This is achieved by transferring 1 uL of the compounds to assay plates by automated liquid handling. The fourth step is to perform the assay as described and count the resulting plates in the Packard TopCount NXT microplate scintillation and luminescence counter.
The final step is data acquisition and analysis where IC50 values are generated for each compound by normalizing curve data to the equation 100*(U1−C2)/(C1−C2) (where U1 is the cpm value, C2 is the background, and C1 is the maximum number of counts), then fitting the normalized data to the equation y=Vmax*(1−(x/(K+x))). The IC50 values were converted to pIC50 values, i.e., −log IC50 in Molar concentration. The data is expressed below in Table 1.

[1] = target: T1, GST-TIE2 (intracellular domains of human TIE2) (Homo sapiens, UniProt Q02763); test: TIE-2 Enzyme Assay (TIE2-E), LANCE method; format: biochemical; details: preactivated GST-TIE2, 1 μM D1-15 peptide, 80 uM ATP, 30 mins at room temperature; pIC50 = -log IC50 in Molar
T1 construct: made in house
Excerpt: The TIE-2 enzyme assay used the LANCE method (Wallac) and GST-TIE2, baculovirus expressed recombinant constructs of the intracellular domains of human TIE2 (amino acids 762-1104, GenBank Accession # L06139) tagged by GST). The method measured the ability of the purified enzymes to catalyse the transfer of the γ-phosphate from ATP onto tyrosine residues in a biotinylated synthetic peptide, D1-15 (biotin-C6-LEARLVAYEGWVAGKKKamide). This peptide phosphorylation was detected using the following procedure: for enzyme preactivation, GST-TIE2 was incubated for 30 mins at room temperature with 2 mM ATP, 5 mM MgCl2 and 12.5 mM DTT in 22.5 mM HEPES buffer (pH7.4). Preactivated GST-TIE2 was incubated for 30 mins at room temperature in 96 well plates with 1 μM D1-15 peptide, 80 uM ATP, 10 mM MgCl2, 0.1 mg/ml BSA and the test compound (diluted from a 10 mM stock in DMSO, final DMSO concentration was 2.4%) in 1 mM HEPES (pH7.4). The reaction was stopped by the addition of EDTA (final concentration 45 mM). Streptavidin linked-APC (allophycocyanin, Molecular Probe) and Europium-labeled anti-phosphorylated tyrosine antibody (Wallac) were then added at the final concentration of 17 μg/well and 2.1 μg/well, respectively. The APC signal was measured using an ARVO multilabel counter. (Wallac Berthold Japan). The percent inhibition of activity was calculated relative to blank control wells.
The concentration of test compound that inhibits 50% of activity (IC50) was interpolated using nonlinear regression (Levernberg-Marquardt) and the equation, y=Vmax (1−x/(K+x))+Y2, where “K” was equal to the IC50. The IC50 values were converted to pIC50 values, i.e., −log IC50 in Molar concentration.
Test compounds are employed in free or salt form.

Chain of GSK-3β (P49841 whole entry, species assumed): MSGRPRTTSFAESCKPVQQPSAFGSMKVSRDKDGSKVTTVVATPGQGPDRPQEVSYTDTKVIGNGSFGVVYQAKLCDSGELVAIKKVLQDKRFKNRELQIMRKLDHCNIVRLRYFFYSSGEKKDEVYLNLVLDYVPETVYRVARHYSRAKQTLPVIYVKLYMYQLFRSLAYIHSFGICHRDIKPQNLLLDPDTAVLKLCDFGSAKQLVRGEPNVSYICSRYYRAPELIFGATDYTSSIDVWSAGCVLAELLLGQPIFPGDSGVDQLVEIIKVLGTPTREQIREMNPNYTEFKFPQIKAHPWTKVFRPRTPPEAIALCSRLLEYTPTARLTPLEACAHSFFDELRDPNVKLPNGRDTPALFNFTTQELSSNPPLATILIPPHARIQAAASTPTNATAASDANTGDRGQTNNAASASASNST
T1 sequence (Q02763 762-1104): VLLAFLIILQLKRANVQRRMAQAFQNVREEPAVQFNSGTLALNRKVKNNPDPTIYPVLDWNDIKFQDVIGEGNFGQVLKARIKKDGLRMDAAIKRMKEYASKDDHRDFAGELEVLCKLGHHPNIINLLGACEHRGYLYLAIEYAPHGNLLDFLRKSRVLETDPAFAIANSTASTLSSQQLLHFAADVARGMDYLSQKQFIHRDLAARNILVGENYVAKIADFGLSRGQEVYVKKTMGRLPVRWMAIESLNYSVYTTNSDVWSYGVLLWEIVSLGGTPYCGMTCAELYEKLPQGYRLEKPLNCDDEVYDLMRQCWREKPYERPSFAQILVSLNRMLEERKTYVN

Row | SMILES | IC50 (GSK-3β) | IC50 [1]
1 | CN(C)CCN1CCN(C(=O)c2ccc(/C=N/Nc3ncnc4c3cnn4-c3ccccc3)cc2)CC1 [Example 35, 4-({4-[2-(Dimethylamino)ethyl]piperazin-1-yl}carbonyl)benzaldehyde (1-phenyl-1H-pyrazolo[3,4-d]pyrimidin-4-yl)hydrazone] | 100 to 1000 nM | 100 to 1000 nM
2 | CCOc1cc(/C=N/Nc2ncnc3c2cnn3-c2ccccc2)ccc1O [Example 49, 3-Ethoxy-4-hydroxy-benzaldehyde (1-phenyl-1H-pyrazolo[3,4-d]pyrimidin-4-yl)hydrazone] | 1000 to 10000 nM | 1000 to 10000 nM
3 | C(=NNc1ncnc2c1cnn2-c1ccccc1)c1cccnc1 [Example 2, Nicotinaldehyde (1-phenyl-1H-pyrazolo[3,4-d]pyrimidin-4-yl)hydrazone] | < 100 nM | 1000 to 10000 nM
4 | [O-][n+]1ccc(/C=N/Nc2ncnc3c2cnn3-c2ccccc2)cc1 [Example 58, Pyridine-N-oxide-4-carboxaldehyde [1-(phenyl)-1H-pyrazolo[3,4-d]pyrimidin-4-yl]hydrazone] | < 100 nM | 1000 to 10000 nM
5 | O=C(O)/C=C/c1ccc(/C=N/Nc2ncnc3c2cnn3-c2ccccc2)cc1 [Example 61, 4-Formylcin namic acid [1-(phenyl)-1H-pyrazolo[3,4-d]pyrimidin-4-yl]hydrazone] | 100 to 1000 nM | 100 to 1000 nM
6 | C(=N\Nc1ncnc2c1cnn2-c1ccccc1)/c1ccncc1 [Example 1, Isonicotinaldehyde (1-phenyl-1H-pyrazolo[3,4-d]pyrimidin-4-yl)hydrazone] | 100 to 1000 nM | 100 to 1000 nM
7 | COc1ccc(/C=N/Nc2ncnc3c2cnn3-c2ccccc2)cc1OC [Example 56, 3,4-Dimethoxybenzaldehyde [1-(phenyl)-1H-pyrazolo[3,4-d]pyrimidin-4-yl]hydrazone] | 100 to 1000 nM | 100 to 1000 nM
8 | OCCOc1ccc(/C=N/Nc2ncnc3c2cnn3-c2ccccc2)cc1 [Example 53, 4-(2-Hydroxyethoxy)benzaldehyde [1-(phenyl)-1H-pyrazolo[3,4-d]pyrimidin-4-yl]hydrazone] | 100 to 1000 nM | 1000 to 10000 nM
9 | OCCOc1cccc(/C=N/Nc2ncnc3c2cnn3-c2ccccc2)c1 [Example 5, 3-(2-Hydroxyethoxy)benzaldehyde (1-phenyl-1H-pyrazolo[3,4-d]pyrimidin-4-yl)hydrazone] | < 100 nM | 100 to 1000 nM
10 | COCCN1CCN(C(=O)c2ccc(/C=N/Nc3ncnc4c3cnn4-c3ccccc3)cc2)CC1 [Example 36, 4-{[4-(2-methoxyethyl)piperazin-1-yl]carbonyl}benzaldehyde (1-phenyl-1H-pyrazolo[3,4-d]pyrimidin-4-yl)hydrazone] | 100 to 1000 nM | 100 to 1000 nM
11 | O=C(NCCCN1CCOCC1)c1ccc(/C=N/Nc2ncnc3c2cnn3-c2ccccc2)cc1 [Example 27] | < 100 nM | 100 to 1000 nM
12 | NCCCNC(=O)c1ccc(/C=N/Nc2ncnc3c2cnn3-c2ccccc2)cc1 [Example 32, N-(3-aminopropyl)-4-{(E)-[(1-phenyl-1H-pyrazolo[3,4-d]pyrimidin-4-yl)hydrazono]methyl}benzamide] | 100 to 1000 nM | 100 to 1000 nM
13 | O=C(O)c1ccc(/C=N/Nc2ncnc3c2cnn3-c2ccccc2)cc1 [Example 24, 4-{(E)-[(1-phenyl-1H-pyrazolo[3,4-d]pyrimidin-4-yl)hydrazono]methyl}benzoic Acid] | 100 to 1000 nM | 100 to 1000 nM
14 | Fc1ccc(/C=N/Nc2ncnc3c2cnn3-c2ccccc2)cc1 [Example 50, 4-Fluorobenzaldehyde (1-phenyl-1H-pyrazolo[3,4-d]pyrimidin-4-yl)hydrazone] | 100 to 1000 nM | 1000 to 10000 nM
15 | CN(CCc1ccccn1)C(=O)c1ccc(/C=N/Nc2ncnc3c2cnn3-c2ccccc2)cc1 [Example 30, N-Methyl-4-{(E)-[(1-phenyl-1H-pyrazolo[3,4-d]pyrimidin-4-yl)hydrazono]methyl}-N-(2-pyridin-2-ylethyl)benzamide] | 100 to 1000 nM | 100 to 1000 nM
16 | CS(=O)(=O)CCNC(=O)c1ccc(/C=N/Nc2ncnc3c2cnn3-c2ccccc2)cc1 [Example 38, N-[2-(Methylsulfonyl)ethyl]-4-{(E)-[(1-phenyl-1H-pyrazolo[3,4-d]pyrimidin-4-yl)hydrazono]methyl}benzamide] | < 100 nM | 100 to 1000 nM
17 | COc1cc(/C=N/Nc2ncnc3c2cnn3-c2ccccc2)cc(Br)c1O [Example 48, 3-Bromo-4-hydroxy-3-methoxybenzaldehyde (1-phenyl-1H-pyrazolo[3,4-d]pyrimidin-4-yl)hydrazone] | 100 to 1000 nM | 100 to 1000 nM
18 | O=C(NCCc1c[nH]cn1)c1ccc(/C=N/Nc2ncnc3c2cnn3-c2ccccc2)cc1 [Example 29, N[2-(1H-imidazol-4-yl)ethyl]-4-{(E)-[(1-phenyl-1H-pyrazolo[3,4-d]pyrimidin-4-yl)hydrazono]methyl}benzamide] | 100 to 1000 nM | 100 to 1000 nM
19 | CCOc1cc(/C=N/Nc2ncnc3c2cnn3-c2ccccc2)cc(Br)c1O [Example 46, 3-Bromo-4-hydroxy-3-ethoxybenzaldehyde (1-phenyl-1H-pyrazolo[3,4-d]pyrimidin-4-yl)hydrazone] | 1000 to 10000 nM | 100 to 1000 nM
20 | COc1cc(/C=N/Nc2ncnc3c2cnn3-c2ccccc2)cc(O)c1OC [Example 7, 3-Hydroxy-4,5-dimethoxybenzaldehyde (1-phenyl-1H-pyrazolo[3,4-d]pyrimidin-4-yl)hydrazone] | < 100 nM | 100 to 1000 nM
21 | O=C(NCCN1CCCC1)c1ccc(/C=N/Nc2ncnc3c2cnn3-c2ccccc2)cc1 [Example 34, 4-{(E)-[(1-phenyl-1H-pyrazolo[3,4-d]pyrimidin-4-yl)hydrazono]methyl}-N-(2-pyrrolidin-1-ylethyl)benzamide] | 100 to 1000 nM | 100 to 1000 nM
22 | COc1cc(/C=N/Nc2ncnc3c2cnn3-c2ccccc2)ccc1O [Example 43, 4-Hydroxy-3-methoxybenzaldehyde (1-phenyl-1H-pyrazolo[3,4-d]pyrimidin-4-yl)hydrazone] | < 100 nM | 100 to 1000 nM
23 | CN1CCN(CCCNC(=O)c2ccc(/C=N/Nc3ncnc4c3cnn4-c3ccccc3)cc2)CC1 [Example 37, N[3-(4-Methylpiperazin-1-yl)propyl]-4-{(E)-[(1-phenyl-1H-pyrazolo[3,4-d]pyrimidin-4-yl)hydrazono]methyl}benzamide] | 100 to 1000 nM | 100 to 1000 nM
24 | O=C(NCCN1CCCCC1)c1ccc(/C=N/Nc2ncnc3c2cnn3-c2ccccc2)cc1 [Example 33, 4-{(E)-[(1-phenyl-1H-pyrazolo[3,4-d]pyrimidin-4-yl)hydrazono]methyl}-N-(2-piperidin-1-ylethyl)benzamide] | < 100 nM | 100 to 1000 nM
25 | CN(C)CCNC(=O)c1ccc(/C=N/Nc2ncnc3c2cnn3-c2ccccc2)cc1 [Example 25, N-[2-(dimethylamino)ethyl]-4-{(E)-[(1-phenyl-1H-pyrazolo[3,4-d]pyrimidin-4-yl)hydrazono]methyl}benzamide] | < 100 nM | 100 to 1000 nM
